Measurements published in patent publication US20240342292A1, “Compounds for the Degradation of EGFR Kinase” (BeiGene Switzerland GmbH, priority 2021, published 2024).

Key:
[1] = test system: Del19/T790M/C797S EGFR; experiment: EGFR degradation HTRF assay in H1975-clone #28 (DTC) cells; format: cell-based; details: H1975 # 28 DTC (Del19/T790M/C797S), 16h treatment; for DC50: HTRF; for Dmax (%): maximum percentage of degradation
Outline: (§1)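 Each homozygous H1975 clone was dosed for 16 h at 37 °C with an 8-dose, 5-fold series (top 10 uM, 0.2% DMSO). An HTRF antibody pair then measured EGFR in lysates, and a sigmoidal fit of percent inhibition gave DC50.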

[2] = target: T1, L858R/T790M/C797S EGFR (Homo sapiens, UniProt P00533, C797S/L858R/T790M); experiment: EGFR degradation HTRF assay in H1975-clone #25 (LTC) cells; format: cell-based; details: 16h treatment; for DC50: HTRF; for Dmax: NCI-H1975, H1975 # 25-LTC (L858R/T790M/C797S)
T1 construct: expressed in transfected cells; host or cells: H1975 clone #25 (lentiviral over-expression, endogenous EGFR knocked out by sgRNA)
Outline: as §1

[3] = H1975 # 25-LTC (L858R/T790M/C797S)
[4] = maximum percentage of degradation

Molecule	DC50 [1] [nM]	Dmax (%) [1] [%]	DC50 [2, 3] [nM]	Dmax [2, 4] [%]	Dmax (%) ([2]; H1975 # 25-LTC (L858R/T790M/C797S), maximum percentage of degradation)
Cc1cc2cc(n1)-c1cnn(C)c1OCCC[C@@H](C)CN1/C(=N/C2=O)Nc2ccc(N3CCN(CCc4ccc(C5CCC(=O)NC5=O)nc4C)CC3)cc21 (stereo partly drawn) [Example 393, 3-(6-methyl-5-(2-(4-((R,E)-1^1,2^6,7-trimethyl-3-oxo-5^2,5^3-dihydro-1^1H,5^1H-11-oxa-4-aza-5(2,1)-benzo[d]imidazola-2(2,4)-pyridina-1(4,5)-pyrazolacycloundecaphane-5^6-yl)piperazin-1-yl)ethyl)pyridin-2-yl)piperidine-2,6-dione]	0.54	77.73	0.34	89.8	
Cc1cc2cc(n1)-c1cnn(C)c1OCCC[C@@H](C)CN1/C(=N/C2=O)Nc2ccc(CN3CCN(C(=O)[C@@H]4CCN(c5cc(F)c([C@H]6CCC(=O)NC6=O)c(F)c5)C4)CC3)c(F)c21 [Example 59, (R)-3-(2,6-difluoro-4-((R)-3-(4-(((R,E)-5^7-fluoro-1^1,2^6,7-trimethyl-3-oxo-5^2,5^3-dihydro-1^1H,5^1H-11-oxa-4-aza-5(2,1)-benzo[d]imidazola-2(2,4)-pyridina-1(4,5)-pyrazolacycloundecaphane-5^6-yl)methyl)piperazine-1-carbonyl)pyrrolidin-1-yl)phenyl)piperidine-2,6-dione]	1.48	78.58	2.92	82	
Cc1cc2cc(n1)-c1cnn(C)c1OCCC[C@@H](C)CN1/C(=N/C2=O)Nc2ccc(C(=O)N3CCC(N(C)CCc4cc(F)c([C@H]5CCC(=O)NC5=O)c(F)c4)CC3)cc21 [Example 299, (R)-3-(2,6-difluoro-4-(2-(methyl(1-((R,E)-1^1,2^6,7-trimethyl-3-oxo-5^2,5^3-dihydro-1^1H,5^1H-11-oxa-4-aza-5(2,1)-benzo[d]imidazola-2(2,4)-pyridina-1(4,5)-pyrazolacycloundecaphane-5^6-carbonyl)piperidin-4-yl)amino)ethyl)phenyl)piperidine-2,6-dione]	0.611	66.17	0.468	86.9	
Cc1cc2cc(n1)-c1cnn(C)c1OCCC[C@@H](C)CN1/C(=N/C2=O)Nc2ccc(N3CC[C@@H](N4CCN(c5cc(F)c([C@H]6CCC(=O)NC6=O)c(F)c5)CC4)CC3=O)cc21 [Example 448, (R)-3-(2,6-difluoro-4-(4-((R)-2-oxo-1-((R,E)-1^1,2^6,7-trimethyl-3-oxo-5^2,5^3-dihydro-1^1H,5^1H-11-oxa-4-aza-5(2,1)-benzo[d]imidazola-2(2,4)-pyridina-1(4,5)-pyrazolacycloundecaphane-5^6-yl)piperidin-4-yl)piperazin-1-yl)phenyl)piperidine-2,6-dione]	0.584	88.36	0.237	92.3	
Cc1cc2cc(n1)-c1cnn(C)c1OCC[C@@H]1C[C@H]1CN1/C(=N/C2=O)Nc2ccc(N3CCN(C4CCN(c5cc(F)c([C@H]6CCC(=O)NC6=O)c(F)c5)CC4)CC3)cc21 [Example 441, (R)-3-(4-(4-(4-((7′R,7^2S,E)-1^1,2^6-dimethyl-3-oxo-5^2,5^3-dihydro-1^1H,5^1H-10-oxa-4-aza-5(2,1)-benzo[d]imidazola-2(2,4)-pyridina-1(4,5)-pyrazola-7(1,2)-cyclopropanacyclodecaphane-5^6-yl)piperazin-1-yl)piperidin-1-yl)-2,6-difluorophenyl)piperidine-2,6-dione]	0.643	89.27	0.857	89.2	
(R,E)-N—((S)-1-(4-((R)-2,6-dioxopiperidin-3-yl)-3,5-difluorophenethyl)azepan-4-yl)-N,1^1,2^6,7-tetramethyl-3-oxo-5^2,5^3-dihydro-1^1H,5^1H-11-oxa-4-aza-5(2,1)-benzo[d]imidazola-2(2,4)-pyridina-1(4,5)-pyrazolacycloundecaphane-5^6-carboxamide [Example 340]	0.587	83.73	0.28		91.69
Cc1cc2cc(n1)-c1cnn(C)c1OCCC[C@@H](C)CN1/C(=N/C2=O)Nc2ccc(N3CCC(NC4CCN(c5cc(F)c([C@H]6CCC(=O)NC6=O)c(F)c5)CC4)CC3)cc21 [Example 401, (R)-3-(2,6-difluoro-4-(4-((1-((R,E)-1^1,2^6,7-trimethyl-3-oxo-5^2,5^3-dihydro-1^1H,5^1H-11-oxa-4-aza-5(2,1)-benzo[d]imidazola-2(2,4)-pyridina-1(4,5)-pyrazolacycloundecaphane-5^6-yl)piperidin-4-yl)amino)piperidin-1-yl)phenyl)piperidine-2,6-dione]	3.18	70.19	1.37	81.1	
Cc1cc2cc(n1)-c1cnn(C)c1OCCC[C@@H](C)CN1/C(=N/C2=O)Nc2ccc(N3CCN(C4CCN(c5cc(F)c([C@H]6CCC(=O)NC6=O)c(F)c5)CC4)[C@@H](CC#N)C3)cc21 [Example 452, 2-((S)-1-(1-(4-((R)-2,6-dioxopiperidin-3-yl)-3,5-difluorophenyl)piperidin-4-yl)-4-((R,E)-1^1,2^6,7-trimethyl-3-oxo-5^2,5^3-dihydro-1^1H,5^1H-11-oxa-4-aza-5(2,1)-benzo[d]imidazola-2(2,4)-pyridina-1(4,5)-pyrazolacycloundecaphane-5^6-yl)piperazin-2-yl)acetonitrile]	1.29	75.73	0.98	78.5	
Cc1cc2cc(n1)-c1cnn(C)c1OCCC[C@@H](C)CN1/C(=N/C2=O)Nc2ccc(C(=O)N(C)[C@H]3CCN(CCNc4cc(F)c([C@H]5CCC(=O)NC5=O)c(F)c4)C[C@@H]3F)cc21 [Example 352, (R,E)-N—((3S,4S)-1-(2-((4-((R)-2,6-dioxopiperidin-3-yl)-3,5-difluorophenyl)amino)ethyl)-3-fluoropiperidin-4-yl)-N,1^1,2^6,7-tetramethyl-3-oxo-5^2,5^3-dihydro-1^1H,5^1H-11-oxa-4-aza-5(2,1)-benzo[d]imidazola-2(2,4)-pyridina-1(4,5)-pyrazolacycloundecaphane-5^6-carboxamide]	0.814	79.43	0.847	85.6	
Cc1cc2cc(n1)-c1cnn(C)c1OCCC[C@@H](C)CN1/C(=N/C2=O)Nc2ccc(C(=O)N(C)CC(F)(F)C3CCN(CCc4cc(F)c([C@H]5CCC(=O)NC5=O)c(F)c4)CC3)cc21 [Example 275, (R,E)-N-(2-(1-(4-((R)-2,6-dioxopiperidin-3-yl)-3,5-difluorophenethyl)piperidin-4-yl)-2,2-difluoroethyl)-N,1^1,2^6,7-tetramethyl-3-oxo-5^2,5^3-dihydro-1^1H,5^1H-11-oxa-4-aza-5(2,1)-benzo[d]imidazola-2(2,4)-pyridina-1(4,5)-pyrazolacycloundecaphane-5^6-carboxamide]	0.798	78.92	1.01	88.9	
Cc1cc2cc(n1)-c1cnn(C)c1OCCC[C@@H](C)CN1/C(=N/C2=O)Nc2ccc(CN3CCN(C(=O)[C@@H]4CCN(c5cc(F)c([C@H]6CCC(=O)NC6=O)c(F)c5)C4)CC34COC4)cc21 [Example 199, (R)-3-(2,6-difluoro-4-((R)-3-(5-(((R,E)-1^1,2^6,7-trimethyl-3-oxo-5^2,5^3-dihydro-1^1H,5^1H-11-oxa-4-aza-5(2,1)-benzo[d]imidazola-2(2,4)-pyridina-1(4,5)-pyrazolacycloundecaphane-5^6-yl)methyl)-2-oxa-5,8-diazaspiro[3.5]nonane-8-carbonyl)pyrrolidin-1-yl)phenyl)piperidine-2,6-dione]	0.752	73.3	0.638	76.5	
Cc1cc2cc(n1)-c1cnn(C)c1OCCC[C@@H](C)CN1/C(=N/C2=O)Nc2ccc(C(=O)N(C)[C@@H]3CCN(CCc4cc(F)c([C@H]5CCC(=O)NC5=O)c(F)c4)C[C@@H]3F)cc21 [Example 344, (R,E)-N—((3S,4R)-1-(4-((R)-2,6-dioxopiperidin-3-yl)-3,5-difluorophenethyl)-3-fluoropiperidin-4-yl)-N,1^1,2^6,7-tetramethyl-3-oxo-5^2,5^3-dihydro-1^1H,5^1H-11-oxa-4-aza-5(2,1)-benzo[d]imidazola-2(2,4)-pyridina-1(4,5)-pyrazolacycloundecaphane-5^6-carboxamide]	0.62	83.22	0.386	92.8	
Cc1cc2cc(n1)-c1cnn(C)c1OCCC[C@@H](C)CN1/C(=N/C2=O)Nc2cc(F)c(C3CCN(C(=O)[C@@H]4CCN(c5cc(F)c(C6CCC(=O)NC6=O)c(F)c5)C4)CC3)cc21 (stereo partly drawn) [Example 329, (R)-3-(2,6-difluoro-4-((R)-3-(4-((R,E)-5^5-fluoro-1^1,2^6,7-trimethyl-3-oxo-5^2,5^3-dihydro-1^1H,5^1H-11-oxa-4-aza-5(2,1)-benzo[d]imidazola-2(2,4)-pyridina-1(4,5)-pyrazolacycloundecaphane-5^6-yl)piperidine-1-carbonyl)pyrrolidin-1-yl)phenyl)piperidine-2,6-dione]	2.19	68.61	2.97	78.7	
